Data as given in ChEMBL document CHEMBL1201862, “PubChem BioAssay data set” (2004).
Activity calls are given as the source filed them. No stated cut-off is given here; in the data, actives have a measured EC50 and inactives only a lower limit.

Experiments:
[1] = NIH3T3 cell viability loss – ATP luminescence, mouse fibroblasts, counter-screen, dose response (AID 2010); format: functional, cell-based;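 further: cells exposed to compound for about 90 hours before reading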
[2] = Trypanosoma cruzi growth suppression in host cells – NIH3T3 host cells, beta-gal luminescence, confirmation (AID 2044); format: functional, cell-based;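 further: intracellular parasites grown in NIH/3T3 mouse fibroblasts as host cells; luminescent beta-galactosidase reporter signal from transgenic T. cruzi replicating inside host cells; inhibitors lower the luminescence signal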

Row | SMILES | EC50 [1] | EC50 [2]
1 | Cc1ccc(SCCN2CCN(C)CC2)cc1 | 10.3 µM (active) | 0.852 µM (active)
2 | O=C(NCC1CCCO1)C(c1cccs1)N(Cc1ccccc1Cl)C(=O)c1ccc(-c2ccccc2)[nH]1 (stereo unspecified) | > 30 µM (not active) | 2.96 µM (active)
3 | CC(=O)c1ccc(N2CCN(C(=O)c3ccc(Cn4c(=S)[nH]c5ccc(N6CCOCC6)cc5c4=O)cc3)CC2)cc1 | > 60 µM (not active) | 1.07 µM (active)
4 | C=CCOc1c(Br)cc(CNCCCN2CCOCC2)cc1OC | 22.9 µM (active) | 0.521 µM (active)
5 | CC(COc1cccc2ccccc12)CN1CCN(C)CC1 (stereo unspecified) | > 30 µM (not active) | 0.284 µM (active)
6 | O=C(N/N=C\c1cccc(F)c1)c1ccc(Cn2cc(Br)c([N+](=O)[O-])n2)o1 | > 60 µM (not active) | 0.889 µM (active)
7 | C=CCNCCOCCOc1ccc(C)cc1Br | > 60 µM (not active) | 3.36 µM (active)
8 | CN1/C(=C/c2cccc[n+]2C)Sc2ccccc21 | > 60 µM (not active) | 0.185 µM (active)
9 | CN(CCc1ccccn1)Cc1ccc(Cl)cc1 | > 60 µM (not active) | 0.221 µM (active)
10 | COC(=O)c1ccc(C2Nc3cccc4cccc(c34)N2)cc1 | > 60 µM (not active) | 6.1 µM (active)
11 | Cc1oc(-c2cccc(Cl)c2)nc1CN1CCCC(C(=O)NCCCN2CCOCC2)C1 (stereo unspecified) | > 60 µM (not active) | 0.234 µM (active)
12 | COc1ccc(C(=O)C2CCCN(Cc3cccc4c3OCO4)C2)cc1OC (stereo unspecified) | 12.4 µM (active) | 0.576 µM (active)
13 | Cc1nn(CC(N)=O)c(=O)c2ccccc12 | > 30 µM (not active) | 0.903 µM (active)
14 | O=C(Nc1nc(-c2ccc(F)cc2)cs1)C1CCN(C(=O)c2ccc(F)cc2)CC1 | > 60 µM (not active) | 4.57 µM (active)
15 | CC(C)OC(=O)c1cn(-c2ccccc2)nc1-c1ccco1 | 31.6 µM (active) | 1.61 µM (active)
16 | N#CC(C(=O)OC1CCCCC1)c1nc2ccccc2nc1N1CCCCC1 (stereo unspecified) | 8.74 µM (active) | 1.01 µM (active)
17 | Fc1ccccc1Cc1noc(CN2CCN(C/C=C/c3ccccc3)CC2)n1 | > 60 µM (inconclusive) | 0.443 µM (active)
18 | CCO/C(O)=C/C1=NC2(CCCCC2)Cc2cc(OC)c(OC)cc21 | > 60 µM (not active) | 2.2 µM (active)
19 | Cc1ccc(S(=O)(=O)NCC(c2cccnc2)N2CCN(Cc3ccccc3)CC2)cc1 (stereo unspecified) | > 60 µM (not active) | 0.732 µM (active)
20 | COc1cc(S(=O)(=O)N2CCC(O)(c3cccc(C(F)(F)F)c3)CC2)ccc1-n1cnnn1 | > 60 µM (not active) | 2.61 µM (active)
21 | O=C(COc1ccccc1)NC(=S)Nc1ccc2c(c1)Cc1ccccc1-2 | > 60 µM (not active) | 0.641 µM (active)
22 | COc1ccc(N2CCN(C(=O)c3ccc(Cn4c(=S)[nH]c5ccc(N6CCOCC6)cc5c4=O)cc3)CC2)cc1 | > 30 µM (not active) | 0.684 µM (active)
23 | CCN(CC)P(=O)(Nc1ccccc1Br)c1ccc(N(C)C)cc1NC(=O)c1ccco1 (stereo unspecified) | > 60 µM (not active) | 1.95 µM (active)
24 | CCCCn1c2ccc(F)cc2c2nnc(SCCN3CCCCC3)nc21 | > 60 µM (not active) | 0.681 µM (active)
25 | CCN(CC)CCN(C(=O)c1ccc2c(c1)CCCC2)c1nc2ccc(F)cc2s1 | > 60 µM (not active) | 0.818 µM (active)
26 | O=C1CC(SC(=Nc2ccccc2)Nc2ccccc2)C(=O)N1c1ccc(Cl)c(Cl)c1 (stereo unspecified) | > 60 µM (inconclusive) | 2.06 µM (active)
27 | O=C1C2C(c3ccccc3)CC=CC2[C@H](c2cccc([N+](=O)[O-])c2)N1Cc1ccccc1 (stereo partly specified) | > 60 µM (not active) | 2.17 µM (active)
28 | Cc1nn(Cc2ccc(F)cc2)c(Cl)c1/C=N/NC(=O)c1ccccc1 | > 60 µM (not active) | 2.67 µM (active)
